Experimental data published in patent EP0438311A2, “Di- and tripeptide renin inhibitors” (MERCK & CO. INC., priority 1990, dated 1991).

Biological target: T1, human plasma renin (Homo sapiens, UniProt P00797)
T1 construct: from tissue; host or cells: human plasma
T1 sequence (P00797 67-406): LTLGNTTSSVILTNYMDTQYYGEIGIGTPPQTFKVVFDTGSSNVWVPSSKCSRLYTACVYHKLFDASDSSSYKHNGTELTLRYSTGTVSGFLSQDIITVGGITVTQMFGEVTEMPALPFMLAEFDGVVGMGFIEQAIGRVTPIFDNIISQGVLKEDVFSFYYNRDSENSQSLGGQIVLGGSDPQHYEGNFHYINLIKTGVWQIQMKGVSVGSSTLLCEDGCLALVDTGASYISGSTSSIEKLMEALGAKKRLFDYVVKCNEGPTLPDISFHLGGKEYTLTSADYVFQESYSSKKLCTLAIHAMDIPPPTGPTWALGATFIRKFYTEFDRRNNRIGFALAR
Assay: Inhibition of human plasma renin, in vitro method of Boger et al.
Assay type: biochemical
Settings: J. Med. Chem. (1985) 28, 1779, read-out: IC₅₀
Protocol: Inhibition of human plasma renin was assayed using the in vitro method described by Boger, et. al., J. Med. Chem. (1985) 28, 1779. IC₅₀-1.3 nM.

| Compound | IC50 |
| --- | --- |
| C=CC[C@H]1COC[C@@H]2C[C@@H]([C@H](O)[C@H](CC3CCCCC3)NC(=O)[C@H](Cc3c[nH]cn3)NC(=O)[C@H](Cc3ccccc3)NC(=O)OC(C)(C)C)C(=O)N21 [Example 3A, Boc-Phe-His-(ACHP)-5(S)-Allyl-7-Oxa-9(S)-Indolizidin-3-One-2(S)-yl] | 1.3 nM |
| C=C(C)C[C@H]1COC[C@@H]2C[C@@H]([C@H](O)[C@H](CC3CCCCC3)NC(=O)[C@H](Cc3cnc[nH]3)NC(=O)[C@H](Cc3ccccc3)NC(=O)OC(C)(C)C)C(=O)N12 [Example 3B, Boc-Phe-His-(ACHP)-5(S)-(2-Methallyl)-7-Oxa-9(S)-Indolizidin-3-One-2(S)-yl] | 0.97 nM |
| CC(C)C[C@H]1COC[C@@H]2C[C@@H]([C@H](O)[C@H](CC3CCCCC3)NC(=O)[C@H](Cc3cnc[nH]3)NC(=O)[C@H](Cc3ccccc3)NC(=O)OC(C)(C)C)C(=O)N12 [Example 3C, Boc-Phe-His-(ACHP)-5(S)-(2-Methylpropyl)-7-Oxa-9(S)-Indolizidin-3-One-2(S)-yl] | 2 nM |

Results, then the compound that gave them:

| IC50 | Compound |
| --- | --- |
| 1 nM | CC(C)(C)OC(=O)N[C@@H](Cc1ccccc1)C(=O)N[C@@H](Cc1cnc[nH]1)C(=O)N[C@@H](CC1CCCCC1)[C@@H](O)[C@@H]1C[C@H]2COC[C@H](C3CCCC3)N2C1=O [Example 3D, Boc-Phe-His-(ACHP)-5(S)-Cyclopentyl-7-Oxa-9(S)-Indolizidin-3-One-2(S)-yl] |
| 1 nM | CCC[C@H]1COC[C@@H]2C[C@@H]([C@H](O)[C@H](CC3CCCCC3)NC(=O)[C@H](Cc3cnc[nH]3)NC(=O)[C@H](Cc3ccccc3)NC(=O)OC(C)(C)C)C(=O)N21 [Example 3E, Boc-Phe-His-(ACHP)-5(S)-Propyl-7-Oxa-9(S)-Indolizidin-3-One-2(S)-yl] |
| 6.8 nM | Boc-Phe-His-(ACHP)-6(S)-Methyl-9(S)-Indolizidin-3-One-2(S)-yl [Example 3XX] |
